In patent US20240246946A1, “MODULATORS OF TREX1” (Constellation Pharmaceuticals, Inc., priority 2021, published 2024):

What was measured:
full length mouse TREX1 = molecular target: T1, full length mouse TREX1 (Mus musculus, UniProt Q91XB0); assay: mTREX1 Biochemical Assay (fluorescence, dsDNA substrate degradation); details: biochemical, read-out: mTREX1 IC50
T1 construct: N-terminally His-Tev tagged full length mouse TREX1; made in house; host or cells: E. coli
T1 sequence (Q91XB0 1-314): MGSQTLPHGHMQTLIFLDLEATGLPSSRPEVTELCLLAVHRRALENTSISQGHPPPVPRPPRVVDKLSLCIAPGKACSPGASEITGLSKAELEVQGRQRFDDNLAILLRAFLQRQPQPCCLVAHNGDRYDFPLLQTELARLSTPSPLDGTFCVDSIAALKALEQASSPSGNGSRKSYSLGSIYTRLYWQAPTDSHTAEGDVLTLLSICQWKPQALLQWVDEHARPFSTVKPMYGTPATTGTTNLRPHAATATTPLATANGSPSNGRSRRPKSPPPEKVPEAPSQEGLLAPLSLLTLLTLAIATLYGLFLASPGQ
Outline: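 Reaction run 18 h at 25° C. with 60 nM TEX615/quencher-labelled dsDNA and 6 pM mouse TREX1 in Tris buffer (pH 7.4, 5 mM MgCl2, 1.0% DMSO), enzyme having sat 4 h with compound across 10 concentrations. EDTA quench; substrate degradation measured as fluorescence increase.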

[1] = molecular target: T2, human TREX2 (residues M44-A279) (Homo sapiens, UniProt Q9BQ50); assay: hTREX2 Biochemical Assay (fluorescence, dsDNA substrate degradation); details: biochemical selectivity for hTREX1 vs hTREX2
T2 construct: human TREX2 (residues M44-A279, expressed in E. coli); made in house; host or cells: E. coli
T2 sequence (Q9BQ50 44-279 isoform Q9BQ50-1): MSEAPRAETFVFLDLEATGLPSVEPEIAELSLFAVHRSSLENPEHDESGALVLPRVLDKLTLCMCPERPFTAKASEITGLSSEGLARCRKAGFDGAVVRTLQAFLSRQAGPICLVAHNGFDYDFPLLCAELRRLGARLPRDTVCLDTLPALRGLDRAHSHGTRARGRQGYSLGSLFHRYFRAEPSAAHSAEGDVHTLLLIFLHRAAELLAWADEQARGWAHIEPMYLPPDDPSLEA
Procedure: Degradation of the dsDNA liberates free fluorophore to produce a fluorescent signal. Specifically, 7.5 μL of N-terminally His-Tev tagged human TREX2 (residues M44-A279, expressed in E. coli and purified in house) in reaction buffer (50 mM Tris, 150 mM NaCl, 2 mM DTT, 0.1 mg/mL BSA, 0.01% (w/v) Tween-20, 5 mM MgCl2, pH 7.4) was added to a 384-well Black ProxiPlate Plus (PerkinElmer) which already contained compound (150 nL) at varying concentrations as a 10 point dose-response in DMSO. The plate was incubated at 25° C. for 4 hours. Reactions were initiated by adding 7.5 μL of dsDNA substrate (Strand A: 5′ TEX615/GCT AGG CAG 3′; Strand B: 5′ CTG CCT AGC/IAbRQSp (IDT)) in reaction buffer. Final concentrations were 50 pM TREX2, 60 nM dsDNA substrate in reaction buffer with 1.0% DMSO (v/v). After 18 hours at 25° C., reactions were quenched by the addition of 2 μL of 500 mM EDTA. Final concentrations in the quenched reaction mixture were 44 pM TREX2, 53 nM DNA and 59 mM EDTA in a volume of 17 μL. After a 5-minute incubation at room temperature, plates were read in an EnVision plate reader (PerkinElmer) measuring fluorescence at 615 nm following excitation w/570 nm light.

full length human TREX1 = molecular target: T3, full length human TREX1 (Homo sapiens, UniProt Q9NSU2); assay: hTREX1 Biochemical Assay (fluorescence, dsDNA substrate degradation); details: biochemical, read-out: hTREX1 IC50
T3 construct: N-terminally His-Tev tagged full length human TREX1; made in house; host or cells: E. coli
T3 sequence (Q9NSU2 1-314): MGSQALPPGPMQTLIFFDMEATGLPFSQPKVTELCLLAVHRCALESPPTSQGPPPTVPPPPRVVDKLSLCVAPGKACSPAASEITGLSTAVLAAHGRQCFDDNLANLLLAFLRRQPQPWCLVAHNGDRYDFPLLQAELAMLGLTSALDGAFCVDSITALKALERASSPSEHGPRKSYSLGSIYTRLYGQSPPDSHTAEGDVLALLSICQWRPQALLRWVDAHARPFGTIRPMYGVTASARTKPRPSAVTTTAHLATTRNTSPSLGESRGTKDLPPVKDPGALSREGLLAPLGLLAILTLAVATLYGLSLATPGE
Outline: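 Fluorescence rises as enzyme degrades a quenched TEX615-labelled dsDNA substrate (60 nM) in 50 mM Tris, 150 mM NaCl, 5 mM MgCl2, pH 7.4. Full-length His-Tev-tagged human TREX1, 4 pM, sits with compound 4 hours at 25° C before substrate; reaction 18 hours, stopped with EDTA.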

Structure (SMILES) | IC50 (full length mouse TREX1) [nM] | hTREX1 vs hTREX2 selectivity [1] | IC50 (full length human TREX1) [nM]
CC(c1nc(C(=O)Nc2cnoc2)c(O)c(=O)n1C)C(c1ccccc1C#N)c1ccnn1C (single isomer, unassigned) [Example 1 D1E2] | > 10 | A (A = <25 fold selective for hTREX1) | > 10
CC(c1nc(C(=O)Nc2cnoc2)c(O)c(=O)n1C)C(c1ccccc1C#N)c1ccnn1C (single isomer, unassigned) [Example 1 D2E2] | > 10 | B (B = 25 to 50-fold selective for hTREX1) | > 10
Cc1ccc(C(c2ccccc2C#N)C(C)c2nc(C(=O)Nc3cnoc3)c(O)c(=O)n2C)cn1 (single isomer, unassigned) [Example 5 D2E1] | > 10 | B (B = 25 to 50-fold selective for hTREX1) | > 10
CC(c1nc(C(=O)Nc2cnoc2)c(O)c(=O)n1C)C(c1cnn(C)c1)c1cccnc1C#N (single isomer, unassigned) [Example 7 D2E2] | > 10 | B (B = 25 to 50-fold selective for hTREX1) | > 10
CC(c1nc(C(=O)Nc2cnoc2)c(O)c(=O)n1C)C(c1cnn(C)c1)c1ccc(C(=O)N(C)C)cc1C#N (single isomer, unassigned) [Example 11 D1E2] | > 10 | B (B = 25 to 50-fold selective for hTREX1) | > 10
CC(c1nc(C(=O)Nc2cnoc2)c(O)c(=O)n1C)C(c1cn[nH]c1)c1ccccc1C#N (single isomer, unassigned) [Example 12 D1E2] | > 10 | B (B = 25 to 50-fold selective for hTREX1) | > 10
CCn1cc(C(c2ccccc2C#N)C(C)c2nc(C(=O)Nc3cnoc3)c(O)c(=O)n2C)cn1 (single isomer, unassigned) [Example 13 D1E2] | > 10 | B (B = 25 to 50-fold selective for hTREX1) | > 10
CC(c1nc(C(=O)Nc2cnoc2)c(O)c(=O)n1C)C(c1cnn(C)c1)c1cc(F)ccc1C#N (single isomer, unassigned) [Example 14 D2E1] | > 10 | A (A = <25 fold selective for hTREX1) | > 10
CC(c1nc(C(=O)Nc2cnoc2)c(O)c(=O)n1C)C(c1cnn(C)c1)c1ccc(F)cc1C#N (single isomer, unassigned) [Example 15 D2E1] | > 10 | B (B = 25 to 50-fold selective for hTREX1) | > 10
CCn1cc(C(c2cc(F)ccc2C#N)C(C)c2nc(C(=O)Nc3cnoc3)c(O)c(=O)n2C)cn1 (single isomer, unassigned) [Example 17 D2E1] | > 10 | B (B = 25 to 50-fold selective for hTREX1) | > 10
CC(c1nc(C(=O)Nc2cnoc2)c(O)c(=O)n1C)C(c1cnn(CCN2CCOCC2)c1)c1ccccc1C#N (single isomer, unassigned) [Example 20 D2E1] | > 10 | B (B = 25 to 50-fold selective for hTREX1) | > 10
CC(c1nc(C(=O)Nc2cnoc2)c(O)c(=O)n1C)C(c1cnn(CCN2CCN(C(=O)OC(C)(C)C)CC2)c1)c1ccccc1C#N (single isomer, unassigned) [Example 21 D2E1] | > 10 | B (B = 25 to 50-fold selective for hTREX1) | > 10
CC(c1nc(C(=O)Nc2cnoc2)c(O)c(=O)n1C)C(c1cnn(CC(F)(F)F)c1)c1ccccc1C#N (single isomer, unassigned) [Example 22 D2E1] | > 10 | B (B = 25 to 50-fold selective for hTREX1) | > 10
CC(c1nc(C(=O)Nc2cnoc2)c(O)c(=O)n1C)C(c1cnn(C)c1)c1cc(Cl)ccc1C#N (single isomer, unassigned) [Example 26 D2E1] | > 10 | B (B = 25 to 50-fold selective for hTREX1) | > 10
CC(c1nc(C(=O)Nc2cnoc2)c(O)c(=O)n1C)C(c1cnn(C)c1)c1ccc(Cl)cc1C#N (single isomer, unassigned) [Example 27 D1E2] | > 10 | C (C = >50 fold selective for hTREX1) | > 10
CC(c1nc(C(=O)Nc2cnoc2)c(O)c(=O)n1C)C(c1cnn(CCN2CCN(C)CC2)c1)c1ccccc1C#N (single isomer, unassigned) [Example 32 D2E1] | > 10 | C (C = >50 fold selective for hTREX1) | > 10
CC(c1nc(C(=O)Nc2cnoc2)c(O)c(=O)n1C)C(c1cnn(CCCN(C)C)c1)c1ccccc1C#N (single isomer, unassigned) [Example 34 D2E1] | > 10 | C (C = >50 fold selective for hTREX1) | > 10
CC(c1nc(C(=O)Nc2cnoc2)c(O)c(=O)n1C)C(c1cnn(CC(C)(C)O)c1)c1ccccc1C#N (single isomer, unassigned) [Example 36 D2E1] | > 10 | B (B = 25 to 50-fold selective for hTREX1) | > 10
CC(c1nc(C(=O)Nc2cnoc2)c(O)c(=O)n1C)C(c1cn(C)cn1)c1ccccc1C#N (single isomer, unassigned) [Example 39 D2E2] | > 10 | C (C = >50 fold selective for hTREX1) | 1 to 10
Cc1cnc(C)c(C(c2ccccc2Cl)C(C)c2nc(C(=O)Nc3cnoc3)c(O)c(=O)n2C)n1 (single isomer, unassigned) [Example 120 D2E1] | > 10 |  | > 10
Cc1cnc(C)c(C(c2cc(F)ccc2Cl)C(C)c2nc(C(=O)Nc3cnoc3)c(O)c(=O)n2C)n1 (single isomer, unassigned) [Example 121 D2E2] | > 10 |  | > 10
Cc1nc(C)c(C(c2ccccc2C#N)C(C)c2nc(C(=O)Nc3cnoc3)c(O)c(=O)n2C)nc1C (single isomer, unassigned) [Example 122 D2E2] | > 10 |  | > 10
Cc1ncc(C(c2ccccc2Cl)C(C)c2nc(C(=O)Nc3cnoc3)c(O)c(=O)n2C)nc1C (single isomer, unassigned) [Example 125 D2E2] | > 10 |  | > 10
CC(c1nc(C(=O)Nc2cnoc2)c(O)c(=O)n1C)C(c1ccccc1C#N)c1nnnn1C (single isomer, unassigned) [Example 131 D1E2] | > 10 |  | > 10
CC(c1nc(C(=O)Nc2cnoc2)c(O)c(=O)n1C)C(c1ccccc1C#N)c1nnnn1C (single isomer, unassigned) [Example 131 D2E2] | > 10 |  | > 10
CC(c1nc(C(=O)Nc2cnoc2)c(O)c(=O)n1C)C(c1cnn(C(F)(F)F)c1)c1ccccc1C#N (single isomer, unassigned) [Example 151 D2E2] | > 10 |  | > 10
CC(=O)N(C)c1nn(C)cc1C(c1ccccc1C#N)C(C)c1nc(C(=O)Nc2cnoc2)c(O)c(=O)n1C (single isomer, unassigned) [Example 153 D1E1] | > 10 |  | > 10
